Results: ChEMBL document CHEMBL3608207, “Synthesis, characterization, evaluation and molecular dynamics studies of 5, 6-diphenyl-1,2,4-triazin-3(2H)-one derivatives bearing 5-substituted 1,3,4-oxadiazole as potential anti-inflammatory and analgesic agents” (Eur J Med Chem, 2015)

Legend:
[1] = Retardation factor of the compound; format: physicochemical
[2] = In-vitro anti-inflammatory activity assessed as inhibition of denaturation of bovine serum albumin at equimolar dose relative to 10 mg indomethacin; format: functional
[3] = Octanol/water partition coefficient, log P of the compound by shake flask method; format: physicochemical
[4] = test system: Rattus norvegicus; assay: Anti-inflammatory activity in rat model of acute inflammation assessed as inhibition of carrageenan-induced paw oedema dosed at equimolar oral dose relative to 10 mg/kg, po indomethacin dosed 1 hr before carrageenan injection and measured 5 hrs after carrageenan injection; format: functional
[5] = test system: Rattus norvegicus; assay: Toxicity in healthy albino rat assessed as induction of sleep up to 500 mg/kg, po; format: organism-based; conditions: in vivo
[6] = test system: Rattus norvegicus; assay: Toxicity in healthy albino rat assessed as induction of changes in autonomic or behavioural responses up to 500 mg/kg, po; format: organism-based; conditions: in vivo
[7] = test system: Rattus norvegicus; assay: Anti-inflammatory activity in rat model of acute inflammation assessed as inhibition of carrageenan-induced paw oedema dosed at equimolar oral dose relative to 10 mg/kg, po indomethacin dosed 1 hr before carrageenan injection and measured 4 hrs after carrageenan injection; format: functional
[8] = test system: Rattus norvegicus; assay: Toxicity in healthy albino rat assessed as induction of coma up to 500 mg/kg, po; format: organism-based; conditions: in vivo
[9] = test system: Rattus norvegicus; assay: Toxicity in healthy albino rat assessed as induction of salivation up to 500 mg/kg, po; format: organism-based; conditions: in vivo
[10] = test system: Rattus norvegicus; assay: Toxicity in healthy albino rat assessed as induction of convulsion up to 500 mg/kg, po; format: organism-based; conditions: in vivo
[11] = test system: Rattus norvegicus; assay: Toxicity in healthy albino rat assessed as induction of lethargy up to 500 mg/kg, po; format: organism-based; conditions: in vivo
[12] = test system: Rattus norvegicus; assay: Toxicity in healthy albino rat assessed as induction of mortality at 500 mg/kg, po measured after 14 days; format: organism-based; conditions: in vivo, 336 h
[13] = test system: Rattus norvegicus; assay: Toxicity in healthy albino rat assessed as induction of tremors up to 500 mg/kg, po; format: organism-based; conditions: in vivo
[14] = test system: Rattus norvegicus; assay: Toxicity in healthy albino rat assessed as induction of diarrhoea up to 500 mg/kg, po; format: organism-based; conditions: in vivo
[15] = test system: Rattus norvegicus; assay: Anti-inflammatory activity in rat model of acute inflammation assessed as inhibition of carrageenan-induced paw oedema dosed at equimolar oral dose relative to 10 mg/kg, po indomethacin dosed 1 hr before carrageenan injection and measured 5 hrs after carrageenan injection relative to 10 mg/kg, po indomethacin; format: functional
[16] = test system: Rattus norvegicus; assay: Anti-inflammatory activity in rat model of acute inflammation assessed as inhibition of carrageenan-induced paw oedema dosed at equimolar oral dose relative to 10 mg/kg, po indomethacin dosed 1 hr before carrageenan injection and measured 3 hrs after carrageenan injection; format: functional
[17] = test system: Rattus norvegicus; assay: Anti-inflammatory activity in rat model of acute inflammation assessed as inhibition of carrageenan-induced paw oedema dosed at equimolar oral dose relative to 10 mg/kg, po indomethacin dosed 1 hr before carrageenan injection and measured 1 hr after carrageenan injection; format: functional
[18] = test system: Rattus norvegicus; assay: Anti-inflammatory activity in rat model of acute inflammation assessed as inhibition of carrageenan-induced paw oedema dosed at equimolar oral dose relative to 10 mg/kg, po indomethacin dosed 1 hr before carrageenan injection and measured 6 hrs after carrageenan injection; format: functional
[19] = test system: Rattus norvegicus; assay: Anti-inflammatory activity in rat model of acute inflammation assessed as inhibition of carrageenan-induced paw oedema dosed at equimolar oral dose relative to 10 mg/kg, po indomethacin dosed 1 hr before carrageenan injection and measured 2 hrs after carrageenan injection; format: functional
[20] = test system: Mus musculus; assay: Analgesic activity in Swiss albino mouse assessed as reduction in formalin-induced paw licking by measuring time spent on licking during phase-2 at 10 mg/kg, po dosed 1 hr before formalin challenge and measured 30 mins after formalin injection; format: functional
[21] = test system: Mus musculus; assay: Analgesic activity in Swiss albino mouse assessed as reduction in formalin-induced paw licking by measuring time spent on licking during phase-1 at 10 mg/kg, po dosed 1 hr before formalin challenge and measured 30 mins after formalin injection; format: functional
[22] = test system: Rattus norvegicus; assay: Anti-inflammatory activity in rat assessed as inhibition of arachidonic acid-induced paw edema at 10 mg/kg, po dosed 30 mins before arachidonic acid injection and measured 1 hr after arachidonic acid injection; format: functional

O=c1nc(-c2ccccc2)c(-c2ccccc2)nn1Cc1nnc(-c2cccc(Cl)c2)o1
Rf [1]: 0.45 | inhibition [2]: 64.4% | logP [3]: 3.82

Cc1ccccc1-c1nnc(Cn2nc(-c3ccccc3)c(-c3ccccc3)nc2=O)o1
Rf [1]: 0.36 | inhibition [2]: 53.7% | logP [3]: 3.81

Cc1ccc(-c2nnc(Cn3nc(-c4ccccc4)c(-c4ccccc4)nc3=O)o2)cc1
Rf [1]: 0.34 | inhibition [2]: 50.3% | logP [3]: 3.73

O=c1nc(-c2ccccc2)c(-c2ccccc2)nn1Cc1nnc(-c2ccncc2)o1
Rf [1]: 0.43 | inhibition [2]: 47.9% | logP [3]: 3.67

O=c1nc(-c2ccccc2)c(-c2ccccc2)nn1Cc1nnc(-c2ccc(Cl)cc2Cl)o1
Rf [1]: 0.51 | inhibition (INH) [4]: 38.31% | Activity [5]: Non-toxic | Activity [6]: Non-toxic | inhibition (INH) [7]: 34.8% | Activity [8]: Non-toxic | Activity [9]: Non-toxic | Activity [10]: Non-toxic | Activity [11]: Non-toxic | Activity [12]: Non-toxic | Activity [13]: Non-toxic | Activity [14]: Non-toxic | inhibition [2]: 67.7% | inhibition (INH) [15]: 61.16% | logP [3]: 4.45 | inhibition (INH) [16]: 31.23% | inhibition (INH) [17]: 12.01% | inhibition (INH) [18]: 35.42% | inhibition (INH) [19]: 28.44%

CC(C)=CCN1CC[C@]2(C)c3cc(O)ccc3C[C@H]1[C@H]2C [(+)-PENTAZOCINE]
inhibition in vivo at 10 mg/kg [20]: 90.2% | inhibition in vivo at 10 mg/kg [21]: 88.9%

N#Cc1cccc(-c2nnc(Cn3nc(-c4ccccc4)c(-c4ccccc4)nc3=O)o2)c1
Rf [1]: 0.45 | inhibition [2]: 62.3% | logP [3]: 3.74

CC(c1cc2ccccc2s1)N(O)C(N)=O (centres undefined) [ZILEUTON]
inhibition in vivo at 10 mg/kg [22]: 67.4%

O=c1nc(-c2ccccc2)c(-c2ccccc2)nn1Cc1nnc(-c2ccccc2)o1
Rf [1]: 0.4 | inhibition [2]: 50.3% | logP [3]: 3.54

O=c1nc(-c2ccccc2)c(-c2ccccc2)nn1Cc1nnc(-c2ccccc2[N+](=O)[O-])o1
Rf [1]: 0.35 | inhibition (INH) [4]: 41.29% | Activity [5]: Non-toxic | Activity [6]: Non-toxic | inhibition (INH) [7]: 38.75% | Activity [8]: Non-toxic | Activity [9]: Non-toxic | Activity [10]: Non-toxic | Activity [11]: Non-toxic | Activity [12]: Non-toxic | Activity [13]: Non-toxic | Activity [14]: Non-toxic | inhibition [2]: 70.1% | inhibition (INH) [15]: 65.92% | logP [3]: 3.64 | inhibition (INH) [16]: 36.39% | inhibition (INH) [17]: 12.12% | inhibition (INH) [18]: 39% | inhibition (INH) [19]: 30.7%

CCOC(=O)Cn1nc(-c2ccccc2)c(-c2ccccc2)nc1=O
inhibition [2]: 35.7%

Oc1nnc(-c2ccccc2)c(-c2ccccc2)n1
inhibition [2]: 30.7%

NNC(=O)Cn1nc(-c2ccccc2)c(-c2ccccc2)nc1=O
inhibition [2]: 38.3%

O=c1nc(-c2ccccc2)c(-c2ccccc2)nn1Cc1nnc(Oc2ccc(Cl)cc2Cl)o1
Rf [1]: 0.47 | inhibition (INH) [4]: 47.14% | Activity [5]: Non-toxic | Activity [6]: Non-toxic | inhibition (INH) [7]: 45.24% | Activity [8]: Non-toxic | Activity [9]: Non-toxic | Activity [10]: Non-toxic | Activity [11]: Non-toxic | Activity [12]: Non-toxic | Activity [13]: Non-toxic | Activity [14]: Non-toxic | inhibition [2]: 72.7% | inhibition (INH) [15]: 75.25% | logP [3]: 4.4 | inhibition (INH) [16]: 42.02% | inhibition (INH) [17]: 15.59% | inhibition (INH) [18]: 44.89% | inhibition (INH) [19]: 34.87%

COc1cccc(-c2nnc(Cn3nc(-c4ccccc4)c(-c4ccccc4)nc3=O)o2)c1
Rf [1]: 0.38 | inhibition [2]: 62.7% | logP [3]: 3.47
